The values below come from the OligoGym collection.

Several values for one entry are separate records, joined by “and”; a condition that tells them apart may be missing. Identical values can stand only once. After the bases stand the sugars from the 5' end (letter, count) and the backbone: PS all phosphorothioate, else s phosphorothioate and o phosphodiester by linkage. Methylation of C is not given here. k = constrained ethyl (cEt); d = 2'-deoxy (DNA)

The series addresses MALAT1. As to conditions: ASO, A431, 0.005 µM.
Turning to GACTTGCTCCCAAGAC (sugars k3 d10 k3, PS), the target mRNA inhibition is 7%.

GAGGCAAGTCCTCATT (sugars k3 d10 k3, PS): the target mRNA inhibition was 11%.

As for GAGGTATGACATATAA (sugars k3 d10 k3, PS), the target mRNA inhibition is 54% and 49% and 50%.

Take GAGTCATTTGCCTTTA (sugars k3 d10 k3, PS): the target mRNA inhibition is 73% and 48%.

For the sequence GAGTGGTTTTATCTAA (sugars k3 d10 k3, PS), the target mRNA inhibition came to 31%.

Take GAGTTGAGGCAAGTCC (sugars k3 d10 k3, PS): the target mRNA inhibition was determined as 52%.

For the sequence GATACCTGTCTGAGGC (sugars k3 d10 k3, PS), the target mRNA inhibition amounted to 33%.

Regarding GATAGTTCAGGGCTTT (sugars k3 d10 k3, PS), the target mRNA inhibition was determined as 10%.

In the case of GATATTTAAGAACTCC (sugars k3 d10 k3, PS), the target mRNA inhibition was found to be 38%.

On to GATCATTAAGCCACTT (sugars k3 d10 k3, PS), for which the target mRNA inhibition stood at 10%.

Turning to GATCCAAGCTACTGGC (sugars k3 d10 k3, PS), the target mRNA inhibition was determined as 18%.

Regarding GATTAAAGTGTGATAG (sugars k3 d10 k3, PS), the target mRNA inhibition was found to be 16%.

For the sequence GATTAGAGAAGAATCC (sugars k3 d10 k3, PS), the target mRNA inhibition amounted to 14%.

Consider GATTATGGATCATGCC (sugars k3 d10 k3, PS), for which the target mRNA inhibition is 47% and 61%.

GATTTGAGCTGCAAAC (sugars k3 d10 k3, PS): the target mRNA inhibition was determined as 0%.

On to GATTTTAAGGTTGCAT (sugars k3 d10 k3, PS), for which the target mRNA inhibition is 55% and 38%.

As to GATTTTTACCAACCAC (sugars k3 d10 k3, PS), the target mRNA inhibition is 42%.

On to GCAAGTCCTCATTACT (sugars k3 d10 k3, PS), for which the target mRNA inhibition is 50% and 30%.

On to GCAATACTGCAGATGC (sugars k3 d10 k3, PS), for which the target mRNA inhibition was -19%.

For GCAATATCTTAGTAAC (sugars k3 d10 k3, PS), the target mRNA inhibition is 23%.

Turning to GCACAGCTCGGGCGAG (sugars k3 d10 k3, PS), the target mRNA inhibition was -20%.

As for GCACTGGTACACCCAG (sugars k3 d10 k3, PS), the target mRNA inhibition was -9%.

On to GCACTTATCCCTAACA (sugars k3 d10 k3, PS), for which the target mRNA inhibition was 58% and 40%.

In the case of GCAGATTCTGTGTTAT (sugars k3 d10 k3, PS), the target mRNA inhibition is -2%.

Consider GCAGTTATATTAGGTT (sugars k3 d10 k3, PS), for which the target mRNA inhibition was determined as 15%.

Consider GCATATGCAGATAATG (sugars k3 d10 k3, PS), for which the target mRNA inhibition was 36%.

GCATCAAGGCACTGAT (sugars k3 d10 k3, PS): the target mRNA inhibition worked out at 35%.

With GCATGTAAGAATTAAG (sugars k3 d10 k3, PS), the target mRNA inhibition was determined as 28%.

In the case of GCATTCTAATAGCAGC (sugars k3 d10 k3, PS), the target mRNA inhibition was 10% and 21%.

For the sequence GCATTGGAGATCAGCT (sugars k3 d10 k3, PS), the target mRNA inhibition was 11%.

Regarding GCATTTACTTGCCAAC (sugars k3 d10 k3, PS), the target mRNA inhibition worked out at 11%.

Regarding GCCAACTAATTGCCAA (sugars k3 d10 k3, PS), the target mRNA inhibition stood at 33%.

With GCCCACAAGGATCCAA (sugars k3 d10 k3, PS), the target mRNA inhibition was determined as 15%.

GCCCACCCTCTAAGAG (sugars k3 d10 k3, PS): the target mRNA inhibition amounted to 18%.

With GCCCACTCTGATCTGC (sugars k3 d10 k3, PS), the target mRNA inhibition was -4%.

Turning to GCCCAGTAGGCCAGAC (sugars k3 d10 k3, PS), the target mRNA inhibition was 25%.

As for GCCCCAGTCCTTTACA (sugars k3 d10 k3, PS), the target mRNA inhibition is 3%.

On to GCCCGCACGGAAATTT (sugars k3 d10 k3, PS), for which the target mRNA inhibition stood at 23%.

For GCCGCAGGGATTTGAA (sugars k3 d10 k3, PS), the target mRNA inhibition stood at 31%.
